{"source": "patent US20260152484A1", "about": "“HETEROCYCLIC COMPOUNDS AS TRIGGERING RECEPTOR EXPRESSED ON MYELOID CELLS 2 AGONISTS” (Vigil Neuroscience, Inc., priority 2021, published 2026)", "target": "T1, human TREM2 (Homo sapiens, UniProt Q9NZC2)", "T1 construct": "expressed in transfected cells; host or cells: HEK293T (HEK293T-hTREM2 cells)", "T1 sequence (Q9NZC2 19-230)": "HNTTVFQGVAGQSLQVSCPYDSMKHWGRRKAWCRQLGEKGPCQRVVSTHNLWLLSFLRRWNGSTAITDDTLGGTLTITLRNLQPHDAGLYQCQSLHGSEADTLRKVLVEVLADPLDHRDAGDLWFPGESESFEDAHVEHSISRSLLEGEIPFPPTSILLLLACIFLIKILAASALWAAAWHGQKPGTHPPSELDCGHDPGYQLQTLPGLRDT", "T1 sequence (O43914 22-113 partner)": "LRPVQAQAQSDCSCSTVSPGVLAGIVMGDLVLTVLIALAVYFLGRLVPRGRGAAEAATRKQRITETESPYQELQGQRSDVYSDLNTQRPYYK", "test": "Cellular phosphorylation of Syk (AlphaLisa) in HEK293T-hTREM2 cells, TREM2 agonist potency", "assay_type": "cell-based", "conditions": "HEK293 cells expressing human TREM2 and DAP12; pSyk AlphaLisa; Table D-2", "description": "In Vitro Measurement of Triggering Receptor Expressed on Myeloid Cells 2 Activity Using Cellular Phosphorylation of Spleen Tyrosine Kinase (“Syk”) Assays\nMeasurement of TREM2 agonist potency was done using a HEK cell line expressing human TREM2 and DAP12 (HEK293T-hTREM2 cells). Binding of small molecules to, and activation of, TREM2 increases the phosphorylation of Syk. The resultant levels of Syk phosphorylation are measured using a commercial AlphaLisa reagent kit. To perform the assay, HEK-hTREM2 cells were plated at 14,000 cells per well in a 384 well plate, in 25 μL of complete growth media and incubated at 37° C., 5% CO2 for 20-24 hours.\nPrior to the assay, test compounds were diluted in the 384 well plates in assay buffer and allowed to equilibrate for 30 minutes. Growth media was removed from cell plates by inversion on blotting paper, and 25 μL of test articles in assay buffer was added to cells. Cells were incubated for 45 minutes at room temperature. After 45 minutes, assay buffer was removed and 10 μL of lysis buffer was added. Plates were shaken for 20 minutes at 350 RPM at room temperature. After complete lysis, AlphaLisa reagents were added to the lysate, and fluourescence intensity was measured using a Perkin Elmer Envision plate reader. Intensities were used to generate a standard curve, and % activation was calculated. Curve fitting was performed using Prism v9 software, log(agonist) vs response—variable slope (four parameters), and EC50s were calculated from the curve fit.\nThe results presented in Table D have been generated with the in vitro assay described above. This assay may be used to test any of the compounds described herein to assess and characterize a compound's ability to act as an agonist of TREM2.", "data": [{"molecule": "Cc1cc2c(-c3ccc(Cl)cc3)nn(-c3ccnc(NC4CCOC4)c3)c(=O)c2nc1C", "note": "(racemic) [I-113, 5-(4-chlorophenyl)-2,3-dimethyl-7-(2-((tetrahydrofuran-3-yl)amino)pyridin-4-yl)pyrido[2,3-d]pyridazin-8 (7H)-one]", "values": [{"measurement": "EC50", "value": "0.5 to 3", "unit": "µM"}]}, {"molecule": "Cc1cc2c(-c3ccc(Cl)cc3)nn(-c3ccnc(OC4CNC4)c3)c(=O)c2nc1C", "note": "[I-94, 7-[2-(azetidin-3-yloxy)-4-pyridyl]-5-(4-chlorophenyl)-2,3-dimethyl-pyrido[2,3-d]pyridazin-8-one; 2,2,2-trifluoroacetic acid]", "values": [{"measurement": "EC50", "value": "0.5 to 3", "unit": "µM"}]}, {"molecule": "Cc1cc2c(-c3ccc(Cl)c(Cl)c3)nn(-c3ccnc(C4COC4)c3)c(=O)c2cc1C", "note": "[I-107, 4-(3,4-dichlorophenyl)-6,7-dimethyl-2-[2-(oxetan-3-yl)-4-pyridyl]phthalazin-1-one]", "values": [{"measurement": "EC50", "value": "0.5 to 3", "unit": "µM"}]}, {"molecule": "COc1ccc(-c2nn(-c3ccnc(C4COC4)c3)c(=O)c3cc(C)c(C)cc23)cc1", "note": "[I-108, 4-(4-methoxyphenyl)-6,7-dimethyl-2-[2-(oxetan-3-yl)-4-pyridyl]phthalazin-1-one]", "values": [{"measurement": "EC50", "value": "0.5 to 3", "unit": "µM"}]}, {"molecule": "Cc1cc2c(-c3ccc(Cl)cc3)nn(-c3ccnc(C4CC(OCc5ccccc5)C4)c3)c(=O)c2cc1C", "note": "(centres unmarked) [I-109, 2-(2-(3-(benzyloxy)cyclobutyl)pyridin-4-yl)-4-(4-chlorophenyl)-6,7-dimethylphthalazin-1 (2H)-one]", "values": [{"measurement": "EC50", "value": "0.5 to 3", "unit": "µM"}]}, {"molecule": "Cc1cc2c(-c3ccc(Cl)cc3F)nn(-c3ccnc(C4COC4)c3)c(=O)c2cc1C", "note": "[I-111, 4-(4-chloro-2-fluoro-phenyl)-6,7-dimethyl-2-[2-(oxetan-3-yl)-4-pyridyl]phthalazin-1-one]", "values": [{"measurement": "EC50", "value": "0.5 to 3", "unit": "µM"}]}, {"molecule": "Cc1cc2c(-c3ccc(Cl)cc3)nn(-c3ccnc(C4COC4)c3)c(=O)c2nc1C", "note": "[I-112, 5-(4-chlorophenyl)-2,3-dimethyl-7-[2-(oxetan-3-yl)-4-pyridyl]pyrido [2,3-d]pyridazin-8-one]", "values": [{"measurement": "EC50", "value": "3 to 100", "unit": "µM"}]}, {"molecule": "Cc1cc2c(-c3ccc(Cl)cc3)nn(-c3ccnc(NC4COC4)c3)c(=O)c2nc1C", "note": "[I-116, 5-(4-chlorophenyl)-2,3-dimethyl-7-(2-(oxetan-3-ylamino)pyridin-4-yl)pyrido[2,3-d]pyridazin-8 (7H)-one]", "values": [{"measurement": "EC50", "value": "0.5 to 3", "unit": "µM"}]}, {"molecule": "Cc1cc2c(-c3ccc(Cl)cc3)nn(-c3ccnc(NC4CC(F)(F)C4)c3)c(=O)c2nc1C", "note": "[I-117, 5-(4-chlorophenyl)-7-(2-((3,3-difluorocyclobutyl)amino)pyridin-4-yl)-2,3-dimethylpyrido[2,3-d]pyridazin-8 (7H)-one]", "values": [{"measurement": "EC50", "value": "0.5 to 3", "unit": "µM"}]}, {"molecule": "Cc1cc2c(-c3ccc(Cl)cc3)nn(-c3ccc(NC4COC4)nc3)c(=O)c2nc1C", "note": "[I-118, 5-(4-chlorophenyl)-2,3-dimethyl-7-[6-(oxetan-3-ylamino)-3-pyridyl]pyrido [2,3-d]pyridazin-8-one; formic acid]", "values": [{"measurement": "EC50", "value": "0.5 to 3", "unit": "µM"}]}, {"molecule": "Cc1cc2c(-c3ccc(Cl)cc3)nn(-c3ccc(N(C)C4COC4)nc3)c(=O)c2nc1C", "note": "[I-119, 5-(4-chlorophenyl)-2,3-dimethyl-7-[6-[methyl(oxetan-3-yl)amino]-3-pyridyl]pyrido[2,3-d]pyridazin-8-one; formic acid]", "values": [{"measurement": "EC50", "value": "0.5 to 3", "unit": "µM"}]}, {"molecule": "Cc1cc2c(-c3ccc(Cl)cc3)nn(-c3ccnc(Nc4cnn(C5CC5)c4)c3)c(=O)c2nc1C", "note": "[I-120, 5-(4-chlorophenyl)-7-(2-((1-cyclopropyl-1H-pyrazol-4-yl)amino)pyridin-4-yl)-2,3-dimethylpyrido[2,3-d]pyridazin-8 (7H)-one]", "values": [{"measurement": "EC50", "value": "0.05 to 0.5", "unit": "µM"}]}, {"molecule": "Cc1cc2c(-c3ccc(F)cc3)nn(-c3ccc(OC(F)(F)F)cc3)c(=O)c2nc1C", "note": "[I-121, 5-(4-fluorophenyl)-2,3-dimethyl-7-(4-(trifluoromethoxy)phenyl)pyrido[2,3-d]pyridazin-8 (7H)-one]", "values": [{"measurement": "EC50", "value": "3 to 100", "unit": "µM"}]}, {"molecule": "Cc1cc2c(-c3ccc(Cl)cc3)cn(-c3ccc(OC(F)(F)F)cc3)c(=O)c2nc1C", "note": "[I-122, 5-(4-chlorophenyl)-2,3-dimethyl-7-(4-(trifluoromethoxy)phenyl)-1,7-naphthyridin-8 (7H)-one]", "values": [{"measurement": "EC50", "value": "0.5 to 3", "unit": "µM"}]}]}
